Data as given in patent US20240374691A1, “GLP-1R AGONISTS FOR USE IN A TREATMENT OF NEUROLOGIAL IMPAIRMENT ASSOCIATED WITH VIRAL INFECTION” (Neuraly, Inc., priority 2021, published 2024).
Where two headings read alike, the source gives them in different places.

Columns and labels:
[1] = in vivo
primary microglia = experiment: Pro-inflammatory cytokine production by primary microglia in vitro (ELISA); type: cell-based; conditions: NLY01 vs PBS
Procedure: Production of pro-inflammatory cytokines is a marker for microglial activation. Chronic microglial activation is pathogenic. […] Cytokine levels were determined using ELISA. Bars indicate mean±s.e.m. (n=3).

[2] = system: Tg models of Alzheimer's Disease; experiment: Tg models of Alzheimer's Disease (AD); type: in vivo
activated microglia = experiment: Microglial activation in vivo after intrastriatal α-synuclein PFF injection; set-up: species or system C57BL6 mice; conditions: 3 mg/kg s.c. twice a week for 5 months, PFF-injected mice, FIGS. 2A-2B
Text: Mice were perfused and brain tissues collected to allow analysis of activated microglia and cytokine levels following treatment.

[3] = in vivo; remark: listed apart in the source
[4] = in vivo; cited from earlier work

Row | Substance | half-life [1] [h] | cytokine production by microglia (primary microglia; absence of activation) | pro-inflammatory cytokine levels (C1q, IL1α, TNF-α, IL1β) (primary microglia; activated microglia, FIGS. 1A-1D) | amyloid aggregation and tau formation [2] | memory impairment [2] | microglia activation and population of reactive astrocytes in the AD brain [2] | Iba-1+ activated microglia in the brain (Iba-1 intensity, microglia density) (activated microglia) | blood-brain barrier traversal [3] | half-life [4]
1 | NLY01: long-acting PEGylated form of exenatide; PEG 50,000 Da site-specifically conjugated to exenatide peptide | 88 | not significantly affected | substantially reduced | reduced | ameliorated | significantly inhibited | reduced | traverses the blood-brain barrier | 
2 | Albiglutide: dipeptidyl peptidase-4-resistant glucagon-like peptide-1 dimer fused to human albumin |  |  |  |  |  |  |  |  | four to seven
